Literature values as cited in paper PMC12150326 (The Journal of Organic Chemistry, 2025).
Where “and” joins values, the source holds several entries; their conditions need not be identical. Equal entries are not always repeated. Where two headings read alike, the source gives them in different places.

Key:
Parameters in all cases: method as in NCI-60 database
[1] = tested on: SK-MEL-2; details: SK-MEL-2 ref NCI-60 database, cited from earlier work
[2] = tested on: LOX IMVI; details: LOX IMVI ref NCI-60 database, cited from earlier work
[3] = tested on: MOLT-4; details: MOLT-4 ref NCI-60 database, cited from earlier work
[4] = tested on: COLO 205; details: COLO 205 ref NCI-60 database, cited from earlier work
[5] = tested on: NCI/ADR-RES; details: NCI/ADR-RES ref NCI-60 database; listed as 757/9; cited from earlier work
[6] = tested on: XF 498; details: XF 498 ref NCI-60 database, cited from earlier work
[7] = tested on: SK-OV-3; details: SK-OV-3 ref NCI-60 database, cited from earlier work
[8] = tested on: IGROV1; details: IGROV1 ref NCI-60 database, cited from earlier work
[9] = tested on: NCI-H23; details: NCI-H23 ref NCI-60 database, cited from earlier work
[10] = tested on: M19-MEL; details: M19-MEL ref NCI-60 database, cited from earlier work
[11] = tested on: MALME-3M; details: MALME-3M ref NCI-60 database, cited from earlier work
[12] = tested on: NCI-H460; details: NCI-H460 ref NCI-60 database, cited from earlier work
[13] = tested on: SN12C; details: SN12C ref NCI-60 database, cited from earlier work
[14] = tested on: OVCAR-3; details: OVCAR-3 ref NCI-60 database, cited from earlier work
[15] = tested on: OVCAR-4; details: OVCAR-4 ref NCI-60 database, cited from earlier work
[16] = tested on: SNB-78; details: SNB-78 ref NCI-60 database, cited from earlier work
[17] = tested on: MCF7; details: MCF7 ref NCI-60 database, cited from earlier work
[18] = tested on: NCI-H226; details: NCI-H226 ref NCI-60 database, cited from earlier work
[19] = tested on: MDA-N; details: MDA-N ref NCI-60 database, cited from earlier work

COc1cc2c(c(OC)c1OC)-c1ccc(OC)c(=O)cc1[C@@H](NC(C)=O)CC2 [Colchicine, (−)-Colchicine]
GI50 [1]: < 10 nM
Log10GI50 [1]: < -8 Molar
Log10LC50 [1]: > -4.00 Molar
Log10GI50 ([1]; listed as 757/1): -7.53 Molar
Log10TGI ([1]; listed as 757/1): < -8.00 Molar
Log10GI50 ([1]; listed as 757/21): < -8.00 Molar
Log10TGI ([1]; listed as 757/21): > -4.00 Molar
GI50 [2]: 19 nM
Log10GI50 [2]: -7.71 Molar
Log10GI50 ([2]; listed as 757/1): -7.11 Molar
GI50 [3]: 40 nM
Log10GI50 [3]: -7.45 Molar
Log10GI50 ([3]; listed as 757/9): -7.60 Molar
Log10LC50 ([3]; listed as 757/9): -4.90 Molar
Log10TGI ([3]; listed as 757/9): < -8.00 Molar
Log10LC50 ([3]; listed as 757/21): > -4.00 Molar
Log10TGI ([3]; listed as 757/21): > -4.00 Molar
GI50 [4]: 10 nM
Log10GI50 [4]: -7.83 Molar
Log10GI50 ([4]; listed as 757/1): -5.74 Molar
Log10GI50 ([4]; listed as 757/21): < -8.00 Molar and -7.83 Molar
Log10LC50 ([4]; listed as 757/21): -7.24 Molar
Log10TGI ([4]; listed as 757/21): -7.89 Molar
Log10GI50 [5]: -6.59 Molar and -6.31 Molar
Log10LC50 [6]: > -4.00 Molar
Log10TGI ([6]; listed as 757/1): -4.41 Molar
Log10LC50 [7]: > -4.00 Molar
Log10GI50 ([7]; listed as 757/1): -4.43 Molar
Log10TGI ([7]; listed as 757/1): -4.07 Molar and -4.21 Molar
Log10GI50 ([7]; listed as 757/9): -7.55 Molar and -7.81 Molar
Log10TGI ([7]; listed as 757/9): -7.17 Molar
Log10GI50 ([7]; listed as 757/21): -7.71 Molar and -7.65 Molar
GI50 [8]: 52 nM
Log10GI50 [8]: -7.28 Molar
Log10LC50 [8]: > -4.00 Molar
Log10GI50 ([8]; listed as 757/9): < -8.00 Molar
Log10TGI ([8]; listed as 757/9): -7.80 Molar
Log10TGI ([8]; listed as 757/21): > -4.00 Molar
GI50 [9]: 30 nM
Log10GI50 [9]: -7.54 Molar
Log10LC50 ([9]; listed as 757/9): -7.14 Molar
Log10LC50 ([9]; listed as 757/21): > -4.00 Molar
Log10TGI ([9]; listed as 757/21): > -4.00 Molar
Log10LC50 [10]: > -4.00 Molar
Log10TGI [10]: > -4.00 Molar
Log10GI50 ([10]; listed as 757/21): < -8.00 Molar
Log10LC50 [11]: > -4.00 Molar
Log10GI50 ([11]; listed as 757/1): -7.28 Molar
Log10GI50 ([11]; listed as 757/9): -7.97 Molar
GI50 [12]: 20 nM
Log10GI50 [12]: -7.65 Molar
Log10LC50 [12]: > -4.00 Molar
Log10TGI ([12]; listed as 757/9): -7.12 Molar
Log10GI50 ([12]; listed as 757/21): -7.62 Molar and -7.50 Molar and -7.65 Molar
GI50 [13]: 54 nM
Log10GI50 [13]: -7.27 Molar
Log10LC50 [13]: > -4.00 Molar
Log10GI50 ([13]; listed as 757/9): < -8.00 Molar
Log10GI50 ([13]; listed as 757/21): -7.33 Molar and -7.28 Molar and -7.27 Molar
Log10TGI ([13]; listed as 757/21): > -4.00 Molar and -4.21 Molar
Log10GI50 ([14]; listed as 757/1): -7.58 Molar
Log10LC50 ([14]; listed as 757/1): > -4.00 Molar
Log10TGI ([14]; listed as 757/1): -7.12 Molar
Log10GI50 ([14]; listed as 757/9): -7.81 Molar
Log10LC50 ([14]; listed as 757/9): < -8.00 Molar
Log10TGI ([14]; listed as 757/9): -7.44 Molar
Log10GI50 ([14]; listed as 757/21): < -8.00 Molar and -7.73 Molar
GI50 [15]: 93300 nM
Log10GI50 [15]: -4.03 Molar
Log10LC50 [15]: > -4.00 Molar
Log10TGI [15]: > -4.00 Molar
Log10GI50 ([15]; listed as 757/1): -4.45 Molar
Log10LC50 [16]: > -4.00 Molar
Log10TGI [16]: > -4.00 Molar
Log10GI50 ([16]; listed as 757/21): -7.88 Molar and < -8.00 Molar
GI50 [17]: 11 nM
Log10GI50 [17]: -7.94 Molar
Log10LC50 [17]: > -4.00 Molar
Log10GI50 ([17]; listed as 757/9): < -8.00 Molar
Log10TGI ([17]; listed as 757/9): -7.92 Molar
Log10GI50 ([17]; listed as 757/21): -7.89 Molar
Log10TGI ([17]; listed as 757/21): > -4.00 Molar
GI50 [18]: 30 nM
Log10GI50 [18]: -7.56 Molar
Log10LC50 [18]: > -4.00 Molar
Log10TGI ([18]; listed as 757/1): > -4.00 Molar
Log10GI50 ([18]; listed as 757/9): -7.18 Molar
Log10TGI ([18]; listed as 757/9): -7.35 Molar
Log10GI50 [19]: < -8.00 Molar
Log10LC50 [19]: > -4.00 Molar
Log10TGI ([19]; listed as 757/9): < -8.00 Molar and -7.91 Molar
Log10TGI ([19]; listed as 757/21): -4.25 Molar
